Measured values published in patent publication US20100092402A1, “TREATMENT OF RESPIRATORY DISEASE” (Mucokinetica Ltd., priority 2007, published 2010).
Like-named read-outs stand apart in the source and are kept apart here.

Columns and labels:
[1] = molecular target: T1, epithelial amiloride-sensitive sodium channel (ENaC) (Homo sapiens, UniProt P37088+P51168+P51170); assay type: cell-based; conditions: 1 μM or 100 μM, 90 min
T1 sequence (P37088 1-669): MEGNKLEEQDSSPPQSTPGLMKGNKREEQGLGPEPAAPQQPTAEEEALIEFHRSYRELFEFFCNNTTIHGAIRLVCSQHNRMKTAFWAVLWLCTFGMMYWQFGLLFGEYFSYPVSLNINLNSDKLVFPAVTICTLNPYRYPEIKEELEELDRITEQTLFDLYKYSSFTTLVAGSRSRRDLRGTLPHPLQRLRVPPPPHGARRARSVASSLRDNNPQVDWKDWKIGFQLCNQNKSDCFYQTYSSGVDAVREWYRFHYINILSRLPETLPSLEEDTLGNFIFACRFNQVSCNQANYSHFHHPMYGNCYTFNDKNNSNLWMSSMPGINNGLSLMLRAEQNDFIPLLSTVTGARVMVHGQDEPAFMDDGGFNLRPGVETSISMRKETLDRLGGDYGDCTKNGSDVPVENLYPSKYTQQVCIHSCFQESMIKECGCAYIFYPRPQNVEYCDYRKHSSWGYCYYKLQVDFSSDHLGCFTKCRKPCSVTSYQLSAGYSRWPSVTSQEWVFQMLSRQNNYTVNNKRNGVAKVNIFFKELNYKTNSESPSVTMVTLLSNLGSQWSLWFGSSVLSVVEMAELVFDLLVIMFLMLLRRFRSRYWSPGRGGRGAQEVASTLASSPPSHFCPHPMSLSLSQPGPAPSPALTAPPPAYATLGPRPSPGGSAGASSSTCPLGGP
T1 sequence (P51168 1-640): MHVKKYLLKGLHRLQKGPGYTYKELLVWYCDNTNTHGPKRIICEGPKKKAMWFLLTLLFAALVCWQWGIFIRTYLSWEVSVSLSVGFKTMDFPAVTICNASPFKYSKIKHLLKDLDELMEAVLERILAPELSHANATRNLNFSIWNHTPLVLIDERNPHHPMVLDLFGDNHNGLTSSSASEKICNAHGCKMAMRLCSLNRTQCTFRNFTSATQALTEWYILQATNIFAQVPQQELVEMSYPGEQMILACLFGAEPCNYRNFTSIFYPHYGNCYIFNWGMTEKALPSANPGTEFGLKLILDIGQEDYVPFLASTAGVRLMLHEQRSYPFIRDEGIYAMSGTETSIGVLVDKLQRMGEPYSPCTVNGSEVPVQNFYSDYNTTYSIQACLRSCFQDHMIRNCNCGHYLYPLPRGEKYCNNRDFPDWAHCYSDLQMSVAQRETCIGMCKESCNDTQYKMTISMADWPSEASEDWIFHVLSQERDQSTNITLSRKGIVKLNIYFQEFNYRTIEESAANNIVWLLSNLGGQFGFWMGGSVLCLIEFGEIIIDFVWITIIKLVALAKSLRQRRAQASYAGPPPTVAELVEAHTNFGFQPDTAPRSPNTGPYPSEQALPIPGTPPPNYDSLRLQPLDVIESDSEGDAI
T1 sequence (P51170 1-649): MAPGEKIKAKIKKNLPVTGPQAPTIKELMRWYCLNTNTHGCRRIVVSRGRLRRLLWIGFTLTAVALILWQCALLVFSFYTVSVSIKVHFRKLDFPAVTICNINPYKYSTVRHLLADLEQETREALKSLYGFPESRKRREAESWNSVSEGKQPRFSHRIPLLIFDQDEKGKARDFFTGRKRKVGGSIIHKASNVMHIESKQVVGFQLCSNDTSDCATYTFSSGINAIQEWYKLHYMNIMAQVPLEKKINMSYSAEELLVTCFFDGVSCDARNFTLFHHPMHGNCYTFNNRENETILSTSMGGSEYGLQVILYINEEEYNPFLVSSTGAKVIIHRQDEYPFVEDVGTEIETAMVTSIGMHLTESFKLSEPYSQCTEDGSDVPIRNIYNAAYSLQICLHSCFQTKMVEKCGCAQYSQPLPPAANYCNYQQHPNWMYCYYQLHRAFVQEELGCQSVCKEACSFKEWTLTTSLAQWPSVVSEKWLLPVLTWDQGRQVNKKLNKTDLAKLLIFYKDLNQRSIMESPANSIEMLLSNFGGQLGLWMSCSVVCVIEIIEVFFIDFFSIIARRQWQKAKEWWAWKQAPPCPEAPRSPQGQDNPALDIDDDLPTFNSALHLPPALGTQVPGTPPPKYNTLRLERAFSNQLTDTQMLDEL
Experimental: (§1) Human bronchial epithelial (HBE) cells were purchased from Cambrex Bioscience Ltd, UK., and were stored frozen in liquid nitrogen until required for use.
(§2) HBE cells were amplified by growing in secondary culture according to the suppliers' instructions. Cells were seeded at densities of between 3,000 to 4,000/cm^2 in plastic T-25 culture flasks in bronchial epithelial cell growth medium (BEGM) prepared from bronchial epithelial basal medium (BEBM, Cambrex, UK) supplemented with bovine pituitary extract, hydrocortisone, human epidermal growth factor, epinephrine, transferrin, insulin, retinoic acid, triiodothyronine, gentamicin, and amphotericin B. Cultures were maintained at 37° C. in 5% CO2 in a humidified incubator. Medium was changed every 1 to 3 days until cells were approximately 90% confluent. Cells were then passaged with trypsin EDTA according to the suppliers' instructions, and either used for further cell cultures, or cryopreserved in liquid nitrogen in BEGM containing 10% foetal bovine serum and 10% DMSO.
(§3) HBE cells were prepared for electrophysiology studies by growing as tertiary cultures on Snapwell (Corning) 0.4μ clear polyester membrane inserts 1.2 cm^2 coated with collagen IV (Sigma). Cells were seeded at approximately 10^5/cm^2 in 0.5 ml 1:1 DMEM (Cambrex, UK) BEGM containing bovine pituitary extract (50 μg/ml), hydrocortisone (0.5 μg/ml), human epidermal growth factor (0.5 ng/ml), epinephrine (0.5 μg/ml), transferrin (10 μg/ml), insulin (5 μg/ml), retinoic acid (50 nM), and gentamicin (50 μg/ml) (Danahay medium; Danahay et al. 2002). Snapwell inserts were mounted in 6-well plates with 3 ml Danahay medium in the wells, and grown at 37° C. in 5% CO2 in a humidified incubator. Medium was changed every 1 to 3 days. An apical air-liquid interface (ALI) was established as the cells achieved confluence (3 to 6 days) by removal of medium from the centre of the insert. Confluent differentiated bronchial epithelial cells were used for electrophysiology studies at between 15 and 29 days after establishing ALI.
(§4) Differentiated HBE cells grown to confluence at an air-liquid interface for 15 to 29 days were used to study substances for ability to achieve long duration down regulation of the epithelial amiloride-sensitive sodium channel (ENaC).
(§5) Step 1: Treatment with substance. For each group of cells treated with a substance, 30 μl of 100 times final concentration of substance was added to the 3 ml basolateral culture medium, mixed and 150 μl of the resultant basolateral fluid was transferred to the apical surface for 5 min. For non-treatment control groups of basolateral fluid with no added substance was transferred to the apical surface. After 5 min. equilibration the excess apical fluid was then transferred back to the basolateral side of the culture well.
(§6) Step 2: Variable period of incubation with the substance. Dependent on the individual experiment the cells were returned to the 37° C. incubator for periods of 0 min. to 120 min.
(§7) Step 3: Period of substance washout with fresh culture medium. For experiments to study the duration of a substance response the HBE cells on Snapwell inserts were washed with fresh culture medium (no added substance) at 37° C. and placed in fresh 6-well plates containing 3 ml fresh culture medium (no added substance) on the basolateral side. […] Step 3 was omitted in studies where the duration of the substance response was not investigated.
(§8) Step 4: Wash with Krebs-Ringer buffer and assembly in Ussing chambers. The Snapwell insert cultures of HBE cells were removed from the 6-well plates and washed with excess Krebs-Ringer buffer (120 mM-NaCl, 25 mM-NaHCO3, 3.3 mM-KH2PO4, 0.8 mM-K2HPO4, 1.2 mM-CaCl2, 1.2 mM-MgCl2, 10 mM-glucose) pH7.4 at 37° C. The inserts were then mounted in Ussing chambers (Snapwell diffusion chambers, Costar UK Ltd.). Each side of the chamber was filled with 5 ml Krebs-Ringer buffer and gassed continuously with 95% O2/5% CO2 at 37° C. […]

[2] = test system: cortical collecting duct of the rabbit kidney; conditions: perfused; Muto et al. 1994; cited from earlier work
[3] = molecular target: T2, epithelial amiloride-sensitive sodium channel (ENaC) (Homo sapiens, UniProt P37088+P51168+P51170); assay type: cell-based
T2 construct: Differentiated HBE cells grown to confluence at an air-liquid interface for 15 to 29 days were used; host or cells: primary human bronchial epithelial (HBE) cells, differentiated at air-liquid interface
Experimental: as §1, §2, §3, §4, §5, §6, §7, §8

[4] = test system: amiloride-sensitive (sodium-dependent) component of nasal PD; test: Nasal PD measurement during perfusion of human nasal epithelium; assay type: in vivo; conditions: perfusion with 10^−5 M-amiloride
Experimental: The method of measurement of nasal PD was an adaptation of that described by Standaert et al. (2004).
Ringer/HEPES buffer solution was prepared containing 148 mM-NaCl, 4.05 mM-KCl, 1.2 mM-CaCl2, 1.2 mM-MgCl2, 2.4 mM-K2HPO4, 0.4 mM-KH2PO4, 10 mM-HEPES, and adjusted to pH 7.4. Low chloride Ringer/HEPES buffer solution was prepared by replacing NaCl with 148 mM-Na gluconate in the Ringer solution components.
Agar electrodes were prepared with 3.7% agarose dissolved in Ringer/HEPES buffer pH 7.4. The reference electrode was placed and taped in contact with a small area on the forearm where the epidermis had been removed by gentle abrasion. A dual lumen nasal recording electrode was prepared using a lm length of soft plastic tubing 2.4 mm diameter, into which 1 mm diameter polythene tubing was inserted through the wall and along the lumen for 15 cm from one end. The 2.4 mm diameter tubing was filled with 3.7% agarose dissolved in Ringer/HEPES buffer pH 7.4. The 1 mm diameter tubing was used for perfusion of buffer solutions and drugs to the nasal epithelium. The ends of the agar electrodes were each placed in contact with a calomel half-cell in 3 M-KCl solution. Voltages were measured by connecting the calomel electrodes to a high impedance voltmeter (Keithley 617 programmable electrometer). Output from the voltmeter was recorded by connection to a Biopac MP100 data aquisition unit and PC running Acqknowledge III data acquisition software.
Nasal PD was recorded via the recording electrode placed in contact with the nasal epithelium approximately 4 cm inside the nostril. The nasal epithelium was perfused according to the following schedule and nasal PD was recorded continuously.
1. Ringer/HEPES buffer was perfused at 0.5 ml/min for 5 min, and starting baseline PD was recorded.
2. Perfusion was then switched to low chloride Ringer/HEPES buffer pH 7.4 for 30 min during which time initial hyperpolarisation of the epithelium occurred.
3. The nasal epithelium was then perfused with 10^−5 M-amiloride in low chloride Ringer/HEPES buffer pH 7.4 for 10 min. Measurement of the amiloride-sensitive (sodium-dependent) component of nasal PD was then made by measuring the difference between the average PD recorded over the 2 min before perfusion with amiloride and the average PD recorded in the period 4 to 6 min after perfusion with amiloride.
4. Amiloride was washed away from the nasal epithelium by perfusion with low chloride Ringer/HEPES buffer pH 7.4 for 30 min.
5. Steps 3 and 4 were then repeated twice more.
6. The nasal epithelium was then perfused with 3 μM 6-amidino-2-napthyl 4-guanidinobenzoate in low chloride Ringer/HEPES buffer pH 7.4 for 60 min.
7. Steps 3 and 4 were then repeated a further twice, followed by either a period of administration of amiloride (3 experiments), or a final repetition of both steps 3 and 4 (1 experiment).
Over the 5 h time course of each experiment nasal PD drifted and oscillated. […] Changes in nasal PD caused by perfusion of amiloride were calculated as the difference between the mean PD recorded in the 2 min period before perfusion with amiloride and the mean PD recorded in the plateau period 4 to 6 min after start of perfusion with amiloride. Within each experiment the change in nasal PD at each period of application of amiloride was expressed as a percentage of the maximum change observed in the experiment.

[5] = test system: nasal epithelium; test: Mucus host-defence responses during nasal perfusion; assay type: in vivo, human; conditions: perfusion with 10^−5 M in low chloride Ringer/HEPES buffer
Excerpt: Perfusion of the nasal epithelium with low chloride Ringer/HEPES buffer imposes a chemical gradient for chloride secretion, and therefore also provides a drive for fluid secretion.
Mucus host-defence episodes were scored 1 to 3 on the basis of the number of features and the magnitude of the responses observed. FIG. 10 reports the score of the episodes recorded, and indicates the time of their occurrence in the perfusion protocol.

[6] = molecular target: T3, ENaC (Homo sapiens, UniProt P37088+P51168+P51170); conditions: same range as 50% to 70% of amiloride inhibition; Bridges et al. 2001; cited from earlier work
T3 construct: Treatment of airway epithelial cells with BAY 39-9437 results in reduction of ENaC activity; host or cells: airway epithelial cells (Bridges et al 2001)
T3 sequence (P37088 1-669): T1 sequence (P37088 1-669)
T3 sequence (P51168 1-640): T1 sequence (P51168 1-640)
T3 sequence (P51170 1-649): T1 sequence (P51170 1-649)

N=C(N)c1ccc2cc(O)ccc2c1 [AN, 6-amidino-2-naphthol]
amiloride ΔIsc compared to control ([1]; HBE 34 & 35 d, 28 & 29 d ALI (FIG. 8B)): not significantly different | minimum effective concentration [2]: 10^−4 M

N=C(N)NC(=O)c1nc(Cl)c(N)nc1N [amiloride]
ΔIsc (amiloride addition) ([3]; 10 μM amiloride apical, HBE cells 24 d in culture, 21 d ALI, FIG. 1): 9.2 μAmp | time for short circuit current to fall to new plateau after application of amiloride ([3]; 10 μM-amiloride, apical surface): ≤ 2 min | time at which partial depolarisation of nasal epithelium was observable [4]: ≤ 2 min | mucus host-defence responses [5]: stimulated episodes of mucus host-defence responses

N=C(N)Nc1ccc(C(=O)O)cc1 [pGBA, p-guanidinobenzoic acid]
amiloride ΔIsc compared to control ([1]; HBE 22 d, 17 d ALI (FIG. 8A)): not significantly different | minimum effective concentration [2]: 10^−5 M

aprotinin
efficacy compared with high dose amiloride [6]: same range
